# How the values were obtained:
# [1] = test system: Patients suffering from diabetic neuropathic pain; test: Clinical study in human diabetic neuropathic pain patients (double-blind, placebo-controlled, 112 days); type: in vivo; details: 1800 mg/day total dosage
# Procedure: FIG. 1 depicts the average VAS score (y-axis) during the last week of treatment of the clinical study described in Example 1. The darker area represents the scores obtained in the group of patients obtaining oxcarbazepine at a daily dosage of 1800 mg (N=68). The brighter area represents the score for the placebo group (N=76). FIG. 2 illustrates the average VAS score (y-axis) by week (x-axis) of the clinical study described in Example 1. The upper lines represents the score for the placebo group (N=76). The lower line represents the scores obtained in the group of patients obtaining oxcarbazepine at a daily dosage of 1800 mg (N=68). In a clinical study in a Caucasian patient population, a full double-blind treatment was conducted for a period of 112 days. Patients suffering from diabetic neuropathic pain obtained placebo or oxcarbazepine.
# [2] = test system: patients with neuropathic pain of diabetic origin; test: Impact of oxcarbazepine on sleep in human diabetic neuropathic pain patients (daily sleep questionnaire); type: in vivo; details: up to 1800 mg/day; for Awaken from sleep, % days during double-blind phase, mean (SD): P 0.02 vs placebo
# Procedure: In a multicenter, placebo-controlled, double-blind, parallel-group study the efficacy of oxcarbazepine up to 1800 mg/day in patients with neuropathic pain of diabetic origin was evaluated. The study consisted of three phases: a pre-randomization screening phase (2 weeks); a double-blind treatment phase (18 weeks); and an open-label extension phase (52 weeks). The double-blind treatment phase was further divided into a titration period of 4 weeks, a maintenance period of 12 weeks, and a follow-up period of 2 weeks. Patients who met all inclusion criteria were randomized in a 1:1 ratio to receive either study medication or placebo during double-blind treatment (16 weeks). After randomization into the double-blind treatment phase, oxcarbazepine or placebo was initiated at 300 mg/day, and increased 3 days later to 300 mg twice a day (600 mg/day). After this, oxcarbazepine was titrated as tolerated up to a maximum target dose of 900 mg twice a day (1800 mg/day) in increments of 300 mg every 5 days over the 4-week titration period. During the remaining 12 weeks of the study (maintenance period), oxcarbazepine treatment remained at the dose reached by day 28. Patient response to the following three questions from the daily sleep questionnaire were used to assess disturbances of sleep over double-blind treatment: 1) Did your pain delay you in getting to sleep last night? 2) Did your pain awaken you from sleep more than one time last night? 3) Did you feel rested after sleep this morning?
# [3] = difference did not achieve statistical significance
compound,measurement,setting,value
"NC(=O)N1c2ccccc2CC(=O)c2ccccc21 [Oxcarbazepine, 10-oxo-10, 11-dihydro-5H-dibenz[b,f]azepine-5-carboxamide]","average Visual Analog Scale (VAS) for pain severity score during the last week of double-blind treatment, versus placebo","[1]; Caucasian patient population, 112 days double-blind, p=0.0108",statistically significantly superior to placebo
same,"percentage of responders (those felt slightly, much, or very much improved)","[1]; placebo group 39.7%, p=0.0003",73.2%
same,"Awaken from sleep, % days during double-blind phase, mean (SD)","[2]; ITT population, n = 68",31 (29) % days
same,"Awaken from sleep, % days during double-blind phase, mean (SD)","[2]; ITT population, n = 68, listed as oxcarbazepine",31 % days
same,"Delayed getting to sleep, % days during double-blind phase, mean (SD)","[2]; ITT population, n = 68, P 0.09 vs placebo",28 (31) % days
same,"Felt rested after sleep, % days during double-blind phase, mean (SD)","[2]; ITT population, n = 68, P 0.17 vs placebo",55 (34) % days
same,"proportion of patients experiencing delays in getting to sleep, in comparison with placebo",[2]; [3],lower proportion
same,"proportion of patients who felt rested after sleep, in comparison with placebo",[2]; [3],greater proportion

# — patent US20060270658A1, “Use of oxcarbazepine for the treatment of diabetic neuropathic pain and the improvement of sleep” (priority 2003, published 2006)
